Test results published in PubChem BioAssay (NCI).
Where “and” joins values, the source holds several entries; their conditions need not be identical. Equal values may be shown once.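 How tested: cells in 96-well plates exposed to compound for 48 hours at five concentrations. At the GI50, growth is halved. TGI marks complete inhibition of growth.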

Tests used:
Assay in all cases: NCI tumour cell line growth inhibition, 48 h
HOP-62 NSCLC = test system: HOP-62 NSCLC
A549 NSCLC = test system: A549 NSCLC
SNB-75 CNS = test system: SNB-75 CNS
RXF 393 renal = test system: RXF 393 renal
SK-MEL-5 melanoma = test system: SK-MEL-5 melanoma
RPMI-8226 leukemia = test system: RPMI-8226 leukemia
T-47D breast = test system: T-47D breast
786-0 renal = test system: 786-0 renal
A498 renal = test system: A498 renal
IGROV1 ovarian = test system: IGROV1 ovarian

Compound	GI50 (HOP-62 NSCLC) [µM]	TGI (HOP-62 NSCLC)	GI50 (A549 NSCLC) [µM]	TGI (A549 NSCLC)	GI50 (SNB-75 CNS) [µM]	TGI (SNB-75 CNS)	GI50 (RXF 393 renal) [µM]	TGI (RXF 393 renal) [µM]	GI50 (SK-MEL-5 melanoma) [µM]	TGI (SK-MEL-5 melanoma) [µM]	GI50 (RPMI-8226 leukemia) [µM]	TGI (RPMI-8226 leukemia) [µM]	GI50 (T-47D breast) [µM]	TGI (T-47D breast) [µM]	GI50 (786-0 renal) [µM]	TGI (786-0 renal)	TGI (A498 renal) [µM]	TGI (IGROV1 ovarian) [µM]	GI50 (A498 renal) [µM]	GI50 (IGROV1 ovarian) [µM]
CNc1ccc(N=Nc2cccc3ncccc23)cc1	49	> 100 µM	50.9	> 100 µM	21.2	> 100 µM	28.7	> 100	23	> 100	7.43	> 65.6	0.0346	> 77.1	> 88.4	> 100 µM	> 68.4	> 100		
COc1cccc(C2CC(=O)Nc3cc4c(cc32)CCC4)c1OC (stereo not given)	5.97	> 46.8 µM	0.859	> 33.8 µM	2.31	11.9 µM	3.34	13.7	2.9	11.1	2.63	14.6	5.52	52.3	4.84	27.9 µM	13.2	59.3	2.39	6.49
CCOc1cccc(/C=N/NC(=O)Cc2ccc(Nc3ccnc(C(F)(F)F)c3)cc2)c1O	2.28	30.8 µM	4.09	> 100 µM	12.4	55 µM	3.2	40	1.67	5.99	0.519	17.4	2.43	26	2.85	74.9 µM	67	> 100	4.62	2.27
CC[C@H](C)[C@H](NC(=O)N[C@@H](C)c1ccccc1)C(=O)N(C)[C@H](C[C@@H](OC(C)=O)c1nc(C(=O)N[C@@H](Cc2ccccc2)C[C@H](C)C(=O)OC)cs1)C(C)C	33	> 100 µM	67.3	> 100 µM	13.8	> 100 µM	13.9	57.3	13.1	40.2	8.74	> 100	97.9	> 100	22.9	82.2 µM		> 100		20.9
CCCCCCCCCCCCCCCCCCNC(=O)[C@H]1CSC(c2ccc(F)c(OC)c2)N1 (stereo not given in full)	0.843	1.6 µM			0.87	1.63 µM	0.894	1.6	0.812	1.52	0.195	0.826	0.604	1.46	1.01	1.91 µM	> 50	5.05	> 50	1.43
COc1cc(/C=C2/C(=O)N(C(=O)c3ccccc3O)N=C2C)ccc1O		> 38.9 µM		> 100 µM						> 42.1		> 100		> 100		> 100 µM		2.06		
N#CC1=C(N)NC(=S)C(C#N)C12Nc1ccccc1S2 (stereo not given)	17.6	72.4 µM	23.1	53.1 µM	28.1	73 µM	27.7	57.5	12.8	26.7	61.6	> 100	32.9	98.4	25.4	68.9 µM		72.5		29.3
CCOC(=O)/N=c1\ssc(Cl)c1Cl	43.7	> 100 µM	24.1	73.8 µM	30.6	87.7 µM	3.01	10.6	3.9	19.1	3.52	> 100	17.2	42.6	12.8	> 100 µM				
COc1cc(/C=C2\C(=O)Nc3ccc(Br)cc32)cc(OC)c1OC	20.3	81.4 µM	10.3	> 100 µM	4.01	14.5 µM			6.33	> 100	1.31	> 41.8	3.06	> 100	27.2	> 100 µM	> 55.8	17	13.7	2.29
BrC(Br)([P+](c1ccccc1)(c1ccccc1)c1ccccc1)[P+](c1ccccc1)(c1ccccc1)c1ccccc1		> 100 µM		> 100 µM		53.3 µM		23.6		32.2		34.4				26.9 µM	48	43.2		
Cc1ccc(-c2cc(C(Cl)Cl)on2)cc1	95.5	> 100 µM	65.6	> 100 µM			> 100	> 100	25.3	> 100	33.8	> 100	35.3	> 100	60.3	> 100 µM	> 100	> 100	42.7	> 100
O=c1ncccn1C1OC(CO)C(O)C1F (stereo not given)		> 100 µM		> 100 µM		> 100 µM		> 100		> 100		> 100				> 100 µM	> 100	> 100		
OCCN(CCO)c1ncnc2c1sc(=S)n2-c1ccccc1		> 100 µM		> 100 µM		> 100 µM		> 100		> 100		> 100				> 100 µM	> 100	> 100		
O=c1/c(=C/c2ccc3c(c2)OCO3)sc2nnc(Cc3ccccc3)n12		> 100 µM		> 100 µM		> 100 µM		> 100		> 100		> 100				> 100 µM	> 100	> 100		
CC1(C)Oc2ccccc2N2O[C@@H]3C(=O)N(c4ccccc4)C(=O)[C@@H]3C21c1ccccc1 (stereo not given in full)		31.5 µM		48.4 µM		35.3 µM		60.8		44.3		> 100				30.3 µM	47.3	> 100		
CCOc1ccccc1NC(=O)CCC(=O)NN		> 100 µM		> 100 µM		> 100 µM		> 100		> 100		> 100				> 100 µM	> 100	> 100		
O=C(O)C(O)c1ccc(F)cc1 (stereo not given)		> 100 µM		> 100 µM		> 100 µM		> 100				> 100		> 100		> 100 µM	> 100	> 100		
CCOC(=O)c1cc(C(=O)O)c(=O)n2c1[nH]c1ccccc12		> 100 µM		> 100 µM		> 100 µM		> 100		> 100		> 100				> 100 µM	> 100	> 100		
COc1ccc(-c2nc(/C=N/Nc3cc(C)nc4ccc(Br)cc34)c(C)o2)cc1	1.67	3.25 µM	1.74	3.33 µM	1.68	3.28 µM	1.44	2.93	1.78	3.18			1.78	3.69	1.71	3.22 µM	2.89	3.36	1.49	1.72
C/C(=N\O)[C@H]1CC[C@@]2(C)[C@@H]3CC[C@H]4C(C)(C)/C(=N/O)CC[C@@]45CC35CC[C@]12C (stereo not given in full)	4.3	> 16.7 µM	3.92	9.59 µM	7.46	14.8 µM	4.02	9.67	1.51	7.59	0.696	6.17			2.97	6.85 µM	5.87	> 16.7	2.46	5.28
CCC1(Cl)C(=O)NC(=O)N(C2CC(O)C(CO)O2)C1N=[N+]=[N-] (stereo not given)		> 100 µM		> 100 µM		> 100 µM		> 100		> 100		> 100				> 100 µM	> 100	> 100		
O=C1Nc2ccc(Br)cc2C1=Nc1ccc(Cl)cc1		52.1 µM		> 100 µM				40.1		20.1		26.5		> 100		> 100 µM	> 100			
CC(=O)Oc1ccc2c(c1)O/C(=C\c1ccc(O)cc1)C2=O		> 100 µM		> 100 µM		> 100 µM		> 100		> 100		> 100		> 100		> 100 µM		> 100		
C=C1C(=O)C23CC1CCC2C12CO[C@@]3(O)[C@@H](O)C1C(C)(C)C=CC2=O (stereo not given in full)	25.2	14.4 µM and 67.2 µM	16.3	7.63 µM and 34.3 µM	13.6	12.7 µM and 26.4 µM		1.34		19.1		21.7		33.1	1.75	1.24 µM and 3.59 µM				
N#CC1=C(N)Oc2c(sc3c(Br)cccc23)C1c1ccc(F)cc1 (stereo not given)	0.354	17.9 µM	0.519	18 µM	0.327	18.9 µM			0.371	12.9	0.482	19.7	0.34	19.7	0.525	14.2 µM	16.7	21	0.314	0.605
